Test [1] relates to PEG-3. As to the kind of experiment: Peg3 promoter luciferase inhibitors, potency, dose response, cell-based, HeLa, CREF/GAPDH counter-screen panel (AID 624167). The conditions noted are these: HeLa PEG-Prom luciferase reporter, overnight, CREF/GAPDH counter-screens.
In test [2] the target is PEG-3 (UniProt Q6IN02). The test is described as above. The conditions noted are these: HeLa PEG-Prom luciferase reporter, overnight, CREF/GAPDH counter-screens, mean of runs. For orientation: Reporter assays use an easily measured gene product as a stand-in for the process of interest.
Chain of PEG-3 (UniProt Q6IN02) (Q6IN02 whole entry, looked up): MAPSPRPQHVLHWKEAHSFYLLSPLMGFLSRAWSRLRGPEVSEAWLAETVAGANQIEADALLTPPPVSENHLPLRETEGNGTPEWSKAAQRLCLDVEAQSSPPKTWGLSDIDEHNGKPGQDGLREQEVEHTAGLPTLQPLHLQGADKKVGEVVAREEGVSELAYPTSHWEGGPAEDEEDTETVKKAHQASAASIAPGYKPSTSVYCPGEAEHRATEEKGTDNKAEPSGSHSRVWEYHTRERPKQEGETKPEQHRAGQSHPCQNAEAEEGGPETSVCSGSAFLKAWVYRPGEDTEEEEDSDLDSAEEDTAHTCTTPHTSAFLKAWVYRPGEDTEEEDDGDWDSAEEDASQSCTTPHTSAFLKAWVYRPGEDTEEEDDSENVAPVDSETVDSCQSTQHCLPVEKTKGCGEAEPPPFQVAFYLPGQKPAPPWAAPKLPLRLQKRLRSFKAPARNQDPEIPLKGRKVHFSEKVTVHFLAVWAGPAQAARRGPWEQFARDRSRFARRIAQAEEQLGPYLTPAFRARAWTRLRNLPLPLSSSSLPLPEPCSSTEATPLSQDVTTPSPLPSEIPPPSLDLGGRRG
Where [3] appears, read: run 1, dose range 1, individual replicate IC50 per panel.
Setting [4] is: run 2, dose range 1, individual replicate IC50 per panel.

Calls of active or inactive are those of the source.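 The calls were made as follows: active = mean IC50 for reducing PEG3 promoter reporter signal at or below a set limit, with IC50 above the limit in both counter screens; inactive = the rest, including counter screen hits.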

Regarding `COc1ccc(CN(C)C(=O)c2cc(-c3ccccc3)nc3ccc(C)cc23)c(OC)c1OC`, the 50% inhibitory concentration (IC50) in the test with PEG-3 [1] (setting [3]) was found to be 32.8 µM; with PEG-3 [1] (setting [4]) it was 23.7 µM. For the same molecule, the IC50 result at PEG-3 [2] is “inactive”.
With `C/C(=N\N=C(N)N)c1ccc(Cl)c(Cl)c1`, the IC50 in the test on PEG-3 [1] (setting [3]) was 20.3 µM; with PEG-3 [1] (setting [4]), 17 µM; on PEG-3 [2] it was 18.7 µM.
In the same order, the values of `CCN1C(=O)C(=Cc2cccc(OC)c2Oc2ccc([N+](=O)[O-])cc2[N+](=O)[O-])SC1=S` are over 100 µM, over 100 µM and > 100 µM (inactive).
`COc1ccc(CNCCC(c2ccccc2)c2ccc(OC(C)C)cc2)cc1OC` (configuration not stated): the figures for the IC50 in the test with PEG-3 [1] (setting [3]), in the test on PEG-3 [1] (setting [4]) and on PEG-3 [2] were 18.1 µM, 19.5 µM and 18.8 µM, respectively.
For `COc1cccc(/C=N/Nc2cc(C)nc(-c3ccccc3O)n2)c1O`, the figures for the 50% inhibitory concentration (IC50) with PEG-3 [1] (setting [3]), in the test on PEG-3 [1] (setting [4]) and at PEG-3 [2] were 12.5 µM, 13.6 µM and 13 µM, respectively.
For `Cc1cc(Sc2ncnc(N)c2[N+](=O)[O-])ncn1`, the IC50 in the test on PEG-3 [1] (setting [3]) is 18.7 µM; with PEG-3 [1] (setting [4]) it was 11.7 µM; on PEG-3 [2] it was 15.2 µM.
Turning to `O=C(c1cc(-c2cccs2)nn1-c1ccccc1)N1CCN(S(=O)(=O)c2ccccc2)CC1`, the results for the half-inhibitory concentration (IC50) with PEG-3 [1] (setting [3]) and with PEG-3 [1] (setting [4]) were 8.84 µM and over 100 µM, respectively. Further, the IC50 entry at PEG-3 [2] was “inactive”.
On to `O=C1NC(=S)NC(=O)C1=Cc1cccn1-c1ccc(O)cc1`, for which the values for the IC50 with PEG-3 [1] (setting [3]), in the test on PEG-3 [1] (setting [4]) and at PEG-3 [2] were 18 µM, 14.8 µM and 16.4 µM, respectively.
Consider `CN(C)CCCN(C(=O)c1ccc(S(=O)(=O)N(C)Cc2ccccc2)cc1)c1nc2cc3c(cc2s1)OCO3`, for which the IC50 in the test with PEG-3 [1] (setting [3]) is 19.3 µM; in the test with PEG-3 [1] (setting [4]), 13.6 µM; on PEG-3 [2] it was 16.4 µM.
As for `COc1cccc(C(=O)O/N=C(\N)c2ccccn2)c1`, the IC50 with PEG-3 [1] (setting [3]) is 15.2 µM; in the test on PEG-3 [1] (setting [4]), 7.08 µM; at PEG-3 [2] it was 11.1 µM.
In the case of `O=c1[nH]c(=O)n(C2OC(CO)C(O)C2O)cc1F` (configuration not stated), the IC50 with PEG-3 [1] (setting [3]) is 25.6 µM; with PEG-3 [1] (setting [4]), 3.07 µM; on PEG-3 [2] it was 14.3 µM.
In the same order, the values of `CCOc1cc(/C=N/Nc2nc(-c3cccc(S(=O)(=O)N4CCCC4)c3)cs2)ccc1O` are 22.3 µM, 60.1 µM and “inactive”.
Regarding `COc1ccc(OC)c(-c2cc(C(=O)N3CCN(c4ncccn4)CC3)c3ccccc3n2)c1`, the IC50 is 35 µM with PEG-3 [1] (setting [3]) and over 100 µM with PEG-3 [1] (setting [4]). On PEG-3 [2], the IC50 entry is “inactive”.
In the same order, the values of `CN(C)c1ccc(N=Nc2nc3ccccc3n2C)cc1` are 20.6 µM, under 100 µM and “inactive”.
In the same order, the values of `CCN(CC)C(=O)Cn1cc(/C=C2\C(=O)NC(=O)N(c3ccccc3F)C2=O)c2ccccc21` are 14.9 µM, 13.1 µM and 14 µM.
In the same order, the values of `Cc1cccc(CN2C(=O)/C(=C\c3ccc(C(=O)NCCN4CCOCC4)cc3)Sc3ccccc32)c1` are 18.2 µM, 22.1 µM and “inactive”.
Take `O=C(O)c1ccc(N/N=C/c2ccc(OC(=O)c3ccccc3Cl)cc2)cc1`: the IC50 with PEG-3 [1] (setting [3]) came out at 3.06 µM; with PEG-3 [1] (setting [4]), 78.5 µM. For the same molecule, at PEG-3 [2], the IC50 entry was “inactive”.
Regarding `O=C(C(=O)N(Cc1ccccc1)Cc1ccccc1)c1c(-c2ccccc2)[nH]c2ccccc12`, the values for the half-maximal inhibitory concentration (IC50) in the test with PEG-3 [1] (setting [3]) and in the test with PEG-3 [1] (setting [4]) were over 100 µM and 7.5 µM, respectively. At PEG-3 [2], the IC50 entry is “inactive”.
Regarding `O=[N+]([O-])c1cc(F)c(N2CCCCCC2)cc1N1CCNCC1`, the half-maximal inhibitory concentration (IC50) in the test with PEG-3 [1] (setting [3]) is 18.9 µM; in the test on PEG-3 [1] (setting [4]), 12.5 µM; at PEG-3 [2], 15.7 µM.
The corresponding values for `COc1ccc(C)cc1Nc1n[n+](-c2ccccc2)c(-c2ccc(N(C)C)cc2)s1` are 36.3 µM, 65.2 µM and “inactive”.
With `O=C(c1ccco1)N1CCN(c2ncnc3c2[nH]c2ccc(Br)cc23)CC1`, the IC50 amounted to 24.9 µM in the test on PEG-3 [1] (setting [3]) and 24.1 µM in the test with PEG-3 [1] (setting [4]). Further, at PEG-3 [2], the IC50 entry was “inactive”.
In the case of `O=C(Nc1ccc2oc(-c3ccncc3)nc2c1)c1ccc([N+](=O)[O-])o1`, the IC50 was 15.9 µM in the test with PEG-3 [1] (setting [3]), 6.56 µM in the test on PEG-3 [1] (setting [4]) and 11.2 µM on PEG-3 [2].
`Cc1ccc(NCCN(C)C)c2c(=O)c3cc(O)ccc3sc12`: the values for the IC50 in the test on PEG-3 [1] (setting [3]), with PEG-3 [1] (setting [4]) and on PEG-3 [2] were 19.1 µM, 8.02 µM and 13.6 µM, respectively.
Take `c1ccc(CCNc2nc(-c3ccncc3)nc3ccccc23)cc1`: the IC50 was 17.7 µM in the test with PEG-3 [1] (setting [3]), 8.58 µM in the test with PEG-3 [1] (setting [4]) and 13.1 µM at PEG-3 [2].
`COc1ccc(NC(=O)N(C)[C@H]2C[C@H]3c4[nH]c5ccc(-c6cccc(C)c6)cc5c4CCN3C[C@H]2[C@H](C)O)cc1`: the IC50 was found to be 23.6 µM in the test with PEG-3 [1] (setting [3]) and 22.7 µM in the test with PEG-3 [1] (setting [4]). Moreover, the IC50 entry on PEG-3 [2] was “inactive”.
With `CN[C@H]1C[C@H]2c3[nH]c4ccc(-c5cccc(C)c5)cc4c3CCN2C[C@H]1[C@H](C)O`, the half-inhibitory concentration (IC50) in the test with PEG-3 [1] (setting [3]) was 18.8 µM; in the test with PEG-3 [1] (setting [4]), 8.37 µM; at PEG-3 [2] it was 13.6 µM.
As to `O=C(/C=C/c1ccccc1)NC(NC(=S)Nc1cccc(Cl)c1)C(Cl)(Cl)Cl` (configuration not stated), the IC50 is 18 µM in the test with PEG-3 [1] (setting [3]), 10.6 µM in the test with PEG-3 [1] (setting [4]) and 14.3 µM on PEG-3 [2].
Turning to `Nc1c(C(=O)Nc2cccc(C(=O)O)c2)sc2nc3c(cc12)CCCC3`, the IC50 in the test on PEG-3 [1] (setting [3]) was 4.36 µM; in the test on PEG-3 [1] (setting [4]), 18 µM; at PEG-3 [2] it was 11.2 µM.
As to `CCC(C)Sc1ccc(-c2nc3ccccn3c2NCc2ccccc2)cc1OC` (configuration not stated), the IC50 in the test with PEG-3 [1] (setting [3]) amounted to 38.3 µM; with PEG-3 [1] (setting [4]) it was 20.2 µM. In addition, the IC50 entry on PEG-3 [2] was “inactive”.
Turning to `CN1CCC(NC(=O)c2cc(-c3cccc(Br)c3)nc3ccccc23)CC1`, the figures for the concentration for half-maximal inhibition (IC50) in the test on PEG-3 [1] (setting [3]), in the test with PEG-3 [1] (setting [4]) and at PEG-3 [2] were 20.9 µM, 15.1 µM and 18 µM, respectively.
The corresponding values for `CN(C)CCNc1ncnc2c1sc1nc(N3CCCC3)c3c(c12)CC(C)(C)OC3` are 32.7 µM, 13.1 µM and “inactive”.
As to `COc1ccc2sc(N(CCCN(C)C)C(=O)c3ccc(S(=O)(=O)N4CCCc5ccccc54)cc3)nc2c1`, the half-inhibitory concentration (IC50) with PEG-3 [1] (setting [3]) is 20.7 µM; in the test on PEG-3 [1] (setting [4]), 21.8 µM. For the same molecule, the IC50 entry at PEG-3 [2] was “inactive”.
Consider `CNCC(O)c1cc(OCc2ccccc2)c(OCc2ccccc2)cc1F` (configuration not stated), for which the 50% inhibitory concentration (IC50) is 20.8 µM with PEG-3 [1] (setting [3]), 16.3 µM in the test with PEG-3 [1] (setting [4]) and 18.5 µM on PEG-3 [2].
Regarding `COC(=O)Cc1[nH]n(-c2nc3ccccc3s2)c(=O)c1C(C)=Nc1ccc(Cl)cc1`, the IC50 in the test on PEG-3 [1] (setting [3]) is 24.7 µM; with PEG-3 [1] (setting [4]), 0.372 µM; on PEG-3 [2] it was 12.5 µM.
Turning to `CNCC[C@H](Oc1cccc2ccccc12)c1cccs1`, the IC50 is 18.8 µM in the test on PEG-3 [1] (setting [3]), 16.6 µM in the test with PEG-3 [1] (setting [4]) and 17.7 µM on PEG-3 [2].
The corresponding values for `O=S(=O)(Nc1cccc2cccnc12)c1ccccc1` are over 100 µM, 7.43 µM and “inactive”.
As to `CN(C)CCNc1ccc(CO)c2oc3ccc(O)cc3c(=O)c12`, the half-maximal inhibitory concentration (IC50) is 20.4 µM in the test on PEG-3 [1] (setting [3]), 13.5 µM with PEG-3 [1] (setting [4]) and 16.9 µM at PEG-3 [2].
On to `Fc1ccc([C@@H]2CCNC[C@H]2COc2ccc3c(c2)OCO3)cc1`, for which the IC50 was 20 µM in the test with PEG-3 [1] (setting [3]), 19 µM with PEG-3 [1] (setting [4]) and 19.5 µM on PEG-3 [2].
In the same order, the values of `Cc1ccc2[nH]c3c(c2c1)CCCC3NC(=O)CCl` (configuration not stated) are 23.3 µM, 49.8 µM and “inactive”.

As a reminder, the IC50 is the midpoint of a concentration-inhibition curve.

These data come from PubChem BioAssay AID624167 (Sanford-Burnham Center for Chemical Genomics, 2012).
